Assay results taken from the NIST ThermoML archive (doi:10.1021/acs.jced.8b00554).
Numbers after ± are expanded uncertainties.

Assay: xn = mol fraction of the nth substance listed
Conditions: Liquid, Vibrating tube method

CCCCCCCC [octane] + CCCO
mass density [kg/m3]
Conditions	343.15 K	353.15 K
100 kPa, x2 = 0.1631	665.21 ± 4.3	654.7 ± 4.2
100 kPa, x2 = 0.2111	667.28 ± 4.3	656.5 ± 4.2
100 kPa, x2 = 0.3158	672.81 ± 4.3	661.43 ± 4.2
100 kPa, x2 = 0.4411	681.54 ± 4.4	669.56 ± 4.3
100 kPa, x2 = 0.7301	709.96 ± 4.5	697.88 ± 4.5
100 kPa, x2 = 0.8823	734.38 ± 4.7	723.05 ± 4.6
1000 kPa, x2 = 0.3158	–	663.09 ± 4.2
1000 kPa, x2 = 0.8823	735.58 ± 4.7	–
1010 kPa, x2 = 0.1631	–	656.23 ± 4.2
1010 kPa, x2 = 0.2111	668.8 ± 4.3	658.1 ± 4.2
1010 kPa, x2 = 0.4411	682.72 ± 4.4	671.12 ± 4.3
1010 kPa, x2 = 0.7301	711.47 ± 4.6	–
1010 kPa, x2 = 0.8823	–	724.42 ± 4.6
1020 kPa, x2 = 0.1631	666.65 ± 4.3	–
1020 kPa, x2 = 0.3158	674.29 ± 4.3	–
1020 kPa, x2 = 0.7301	–	699.6 ± 4.5
2000 kPa, x2 = 0.1631	667.79 ± 4.3	–
2000 kPa, x2 = 0.4411	–	672.33 ± 4.3
2010 kPa, x2 = 0.2111	669.99 ± 4.3	659.4 ± 4.2
2010 kPa, x2 = 0.3158	–	664.39 ± 4.3
2010 kPa, x2 = 0.4411	683.85 ± 4.4	–
2010 kPa, x2 = 0.8823	736.66 ± 4.7	–
2020 kPa, x2 = 0.1631	–	657.52 ± 4.2
2020 kPa, x2 = 0.3158	675.48 ± 4.3	–
2020 kPa, x2 = 0.7301	712.6 ± 4.6	700.81 ± 4.5
2020 kPa, x2 = 0.8823	–	725.57 ± 4.7
3000 kPa, x2 = 0.1631	–	658.76 ± 4.2
3000 kPa, x2 = 0.2111	671.1 ± 4.3	–
3000 kPa, x2 = 0.3158	676.61 ± 4.3	–
3000 kPa, x2 = 0.4411	685.01 ± 4.4	–
3000 kPa, x2 = 0.7301	–	702.03 ± 4.5
3010 kPa, x2 = 0.3158	–	665.6 ± 4.3
3010 kPa, x2 = 0.4411	–	673.58 ± 4.3
3010 kPa, x2 = 0.7301	713.72 ± 4.6	–
3010 kPa, x2 = 0.8823	–	726.72 ± 4.7
3020 kPa, x2 = 0.1631	668.96 ± 4.3	–
3020 kPa, x2 = 0.2111	–	660.63 ± 4.2
3020 kPa, x2 = 0.8823	737.74 ± 4.7	–
4000 kPa, x2 = 0.3158	677.77 ± 4.3	–
4000 kPa, x2 = 0.8823	738.79 ± 4.7	727.86 ± 4.7
4010 kPa, x2 = 0.2111	–	661.88 ± 4.2
4010 kPa, x2 = 0.3158	–	666.84 ± 4.3
4010 kPa, x2 = 0.4411	686.15 ± 4.4	674.84 ± 4.3
4010 kPa, x2 = 0.7301	714.83 ± 4.6	703.25 ± 4.5
4020 kPa, x2 = 0.1631	670.09 ± 4.3	659.99 ± 4.2
4020 kPa, x2 = 0.2111	672.25 ± 4.3	–
5000 kPa, x2 = 0.2111	–	663.08 ± 4.2
5000 kPa, x2 = 0.4411	–	676.07 ± 4.3
5000 kPa, x2 = 0.7301	715.96 ± 4.6	–
5010 kPa, x2 = 0.1631	671.22 ± 4.3	661.2 ± 4.2
5010 kPa, x2 = 0.3158	–	668.06 ± 4.3
5010 kPa, x2 = 0.4411	687.28 ± 4.4	–
5010 kPa, x2 = 0.7301	–	704.44 ± 4.5
5010 kPa, x2 = 0.8823	739.88 ± 4.7	–
5020 kPa, x2 = 0.2111	673.37 ± 4.3	–
5020 kPa, x2 = 0.3158	678.9 ± 4.3	–
5020 kPa, x2 = 0.8823	–	729.03 ± 4.7
6000 kPa, x2 = 0.4411	–	677.27 ± 4.3
6000 kPa, x2 = 0.7301	–	705.64 ± 4.5
6010 kPa, x2 = 0.1631	672.33 ± 4.3	–
6010 kPa, x2 = 0.3158	–	669.31 ± 4.3
6010 kPa, x2 = 0.4411	688.39 ± 4.4	–
6010 kPa, x2 = 0.8823	740.91 ± 4.8	–
6020 kPa, x2 = 0.1631	–	662.41 ± 4.2
6020 kPa, x2 = 0.2111	674.49 ± 4.3	664.26 ± 4.3
6020 kPa, x2 = 0.3158	680.02 ± 4.4	–
6020 kPa, x2 = 0.7301	717.05 ± 4.6	–
6020 kPa, x2 = 0.8823	–	730.16 ± 4.7
7000 kPa, x2 = 0.7301	–	706.83 ± 4.5
7000 kPa, x2 = 0.8823	741.99 ± 4.8	731.28 ± 4.7
7010 kPa, x2 = 0.1631	673.46 ± 4.3	663.61 ± 4.2
7010 kPa, x2 = 0.2111	675.59 ± 4.3	665.47 ± 4.3
7010 kPa, x2 = 0.4411	689.51 ± 4.4	–
7010 kPa, x2 = 0.7301	718.15 ± 4.6	–
7020 kPa, x2 = 0.3158	681.12 ± 4.4	670.48 ± 4.3
7020 kPa, x2 = 0.4411	–	678.5 ± 4.3
8000 kPa, x2 = 0.2111	676.71 ± 4.3	–
8000 kPa, x2 = 0.3158	682.22 ± 4.4	–
8000 kPa, x2 = 0.8823	743 ± 4.8	–
8010 kPa, x2 = 0.1631	674.54 ± 4.3	664.82 ± 4.3
8010 kPa, x2 = 0.3158	–	671.68 ± 4.3
8010 kPa, x2 = 0.4411	690.61 ± 4.4	679.69 ± 4.4
8010 kPa, x2 = 0.7301	–	708 ± 4.5
8020 kPa, x2 = 0.2111	–	666.69 ± 4.3
8020 kPa, x2 = 0.7301	719.22 ± 4.6	–
8020 kPa, x2 = 0.8823	–	732.4 ± 4.7
9000 kPa, x2 = 0.1631	675.63 ± 4.3	666 ± 4.3
9000 kPa, x2 = 0.4411	691.72 ± 4.4	–
9000 kPa, x2 = 0.7301	720.31 ± 4.6	–
9010 kPa, x2 = 0.2111	677.8 ± 4.3	667.86 ± 4.3
9010 kPa, x2 = 0.3158	683.34 ± 4.4	672.89 ± 4.3
9010 kPa, x2 = 0.4411	–	680.87 ± 4.4
9010 kPa, x2 = 0.7301	–	709.2 ± 4.5
9010 kPa, x2 = 0.8823	744.04 ± 4.8	–
9020 kPa, x2 = 0.8823	–	733.54 ± 4.7
10000 kPa, x2 = 0.8823	–	734.63 ± 4.7
10010 kPa, x2 = 0.1631	–	667.15 ± 4.3
10010 kPa, x2 = 0.2111	678.85 ± 4.3	669.02 ± 4.3
10010 kPa, x2 = 0.3158	684.4 ± 4.4	–
10010 kPa, x2 = 0.4411	692.81 ± 4.4	–
10010 kPa, x2 = 0.8823	745.05 ± 4.8	–
10020 kPa, x2 = 0.1631	676.71 ± 4.3	–
10020 kPa, x2 = 0.7301	721.36 ± 4.6	–
11000 kPa, x2 = 0.4411	693.87 ± 4.5	–
11010 kPa, x2 = 0.2111	679.93 ± 4.4	–
11010 kPa, x2 = 0.3158	685.49 ± 4.4	–
11020 kPa, x2 = 0.1631	677.8 ± 4.3	–
11020 kPa, x2 = 0.7301	722.39 ± 4.6	–
11020 kPa, x2 = 0.8823	746.05 ± 4.8	–
12000 kPa, x2 = 0.3158	686.55 ± 4.4	–
12010 kPa, x2 = 0.2111	681 ± 4.4	–
12010 kPa, x2 = 0.7301	723.42 ± 4.6	–
12010 kPa, x2 = 0.8823	747.05 ± 4.8	–
12020 kPa, x2 = 0.1631	678.83 ± 4.3	–
12020 kPa, x2 = 0.4411	694.93 ± 4.5	–
13000 kPa, x2 = 0.2111	682.04 ± 4.4	–
13010 kPa, x2 = 0.3158	687.6 ± 4.4	–
13010 kPa, x2 = 0.4411	695.99 ± 4.5	–
13010 kPa, x2 = 0.8823	748.05 ± 4.8	–
13020 kPa, x2 = 0.1631	679.88 ± 4.4	–
13020 kPa, x2 = 0.7301	724.48 ± 4.6	–
14000 kPa, x2 = 0.2111	683.07 ± 4.4	–
14000 kPa, x2 = 0.7301	725.49 ± 4.7	–
14000 kPa, x2 = 0.8823	749.02 ± 4.8	–
14010 kPa, x2 = 0.1631	680.88 ± 4.4	–
14010 kPa, x2 = 0.4411	697.01 ± 4.5	–
14020 kPa, x2 = 0.3158	688.64 ± 4.4	–
15000 kPa, x2 = 0.2111	684.09 ± 4.4	–
15000 kPa, x2 = 0.8823	749.96 ± 4.8	–
15010 kPa, x2 = 0.1631	681.89 ± 4.4	–
15010 kPa, x2 = 0.3158	689.64 ± 4.4	–
15010 kPa, x2 = 0.7301	726.47 ± 4.7	–
15020 kPa, x2 = 0.4411	698 ± 4.5	–
16000 kPa, x2 = 0.2111	685.06 ± 4.4	–
16000 kPa, x2 = 0.3158	690.66 ± 4.4	–
16000 kPa, x2 = 0.4411	699.01 ± 4.5	–
16010 kPa, x2 = 0.1631	682.9 ± 4.4	–
16010 kPa, x2 = 0.7301	727.46 ± 4.7	–
16010 kPa, x2 = 0.8823	750.92 ± 4.8	–
17000 kPa, x2 = 0.8823	751.86 ± 4.8	–
17010 kPa, x2 = 0.1631	683.85 ± 4.4	–
17010 kPa, x2 = 0.2111	686.08 ± 4.4	–
17010 kPa, x2 = 0.3158	691.65 ± 4.4	–
17010 kPa, x2 = 0.4411	699.99 ± 4.5	–
17010 kPa, x2 = 0.7301	728.43 ± 4.7	–
18000 kPa, x2 = 0.1631	684.83 ± 4.4	–
18000 kPa, x2 = 0.7301	729.35 ± 4.7	–
18010 kPa, x2 = 0.3158	692.6 ± 4.5	–
18010 kPa, x2 = 0.4411	700.97 ± 4.5	–
18020 kPa, x2 = 0.2111	687.03 ± 4.4	–
18020 kPa, x2 = 0.8823	752.76 ± 4.8	–
19000 kPa, x2 = 0.1631	685.78 ± 4.4	–
19010 kPa, x2 = 0.3158	693.56 ± 4.5	–
19010 kPa, x2 = 0.8823	753.68 ± 4.8	–
19020 kPa, x2 = 0.2111	687.96 ± 4.4	–
19020 kPa, x2 = 0.4411	701.92 ± 4.5	–
19020 kPa, x2 = 0.7301	730.28 ± 4.7	–
20000 kPa, x2 = 0.7301	731.24 ± 4.7	–
20010 kPa, x2 = 0.1631	686.67 ± 4.4	–
20010 kPa, x2 = 0.2111	688.89 ± 4.4	–
20010 kPa, x2 = 0.3158	694.48 ± 4.5	–
20010 kPa, x2 = 0.4411	702.85 ± 4.5	–
20020 kPa, x2 = 0.8823	754.54 ± 4.8	–
